Converted amounts (≈) assume the structure as drawn.
What was measured:
Desulfovibrio piger [1] = assay: Antimicrobial activity against Desulfovibrio piger by Wadsworth agar dilution method in presence of beta-lactamase inhibitor Sulbactam; format: functional
Desulfovibrio vulgaris = assay: Antimicrobial activity against Desulfovibrio vulgaris by Wadsworth agar dilution method in presence of beta-lactamase inhibitor Sulbactam; format: functional; settings: Nitratidesulfovibrio vulgaris
Desulfovibrio sp. = assay: Antimicrobial activity against Desulfovibrio sp. by Wadsworth agar dilution method in presence of beta-lactamase inhibitor Sulbactam; format: functional
Fusobacterium varium [2] = assay: Antimicrobial activity against Fusobacterium varium by Wadsworth agar dilution method in presence of beta-lactamase inhibitor Sulbactam; format: functional
Fusobacterium sp. [3] = assay: Antimicrobial activity against Fusobacterium sp. by Wadsworth agar dilution method in presence of beta-lactamase inhibitor Sulbactam; format: functional
[4] = tested on: Porphyromonas asaccharolytica; assay: Antimicrobial activity against Porphyromonas asaccharolyticus by Wadsworth agar dilution method in presence of beta-lactamase inhibitor Sulbactam; format: functional
Porphyromonas uenonis = assay: Antimicrobial activity against Porphyromonas uenonis by Wadsworth agar dilution method in presence of beta-lactamase inhibitor Sulbactam; format: functional
Prevotella corporis = assay: Antimicrobial activity against Prevotella corporis by Wadsworth agar dilution method in presence of beta-lactamase inhibitor Sulbactam; format: functional
[5] = tested on: Prevotella melaninogenica; assay: Antimicrobial activity against Prevotella melaninogenica by Wadsworth agar dilution method in presence of beta-lactamase inhibitor Sulbactam; format: functional
Clostridium bartlettii = assay: Antimicrobial activity against Clostridium bartlettii by Wadsworth agar dilution method in presence of beta-lactamase inhibitor Sulbactam; format: functional; settings: Intestinibacter bartlettii
Clostridium bolteae [6] = assay: Antimicrobial activity against Clostridium bolteae by Wadsworth agar dilution method in presence of beta-lactamase inhibitor Sulbactam; format: functional; settings: Enterocloster bolteae
Clostridium butyricum = assay: Antimicrobial activity against Clostridium butyricum by Wadsworth agar dilution method in presence of beta-lactamase inhibitor Sulbactam; format: functional
[7] = tested on: Clostridium paraputrificum; assay: Antimicrobial activity against Clostridium paraputrificum by Wadsworth agar dilution method in presence of beta-lactamase inhibitor Sulbactam; format: functional
Fusobacterium mortiferum = assay: Antimicrobial activity against Clostridium rectum by Wadsworth agar dilution method in presence of beta-lactamase inhibitor Sulbactam; format: functional
Clostridium subterminale = assay: Antimicrobial activity against Clostridium subterminale by Wadsworth agar dilution method in presence of beta-lactamase inhibitor Sulbactam; format: functional
Atopobium minutum = assay: Antimicrobial activity against Atopobium minutum by Wadsworth agar dilution method in presence of beta-lactamase inhibitor Sulbactam; format: functional
Eubacterium limosum = assay: Antimicrobial activity against Eubacterium limosum by Wadsworth agar dilution method in presence of beta-lactamase inhibitor Sulbactam; format: functional
Propionibacterium avidum = assay: Antimicrobial activity against Propionibacterium avidum by Wadsworth agar dilution method in presence of beta-lactamase inhibitor Sulbactam; format: functional; settings: Cutibacterium avidum
Finegoldia magna = assay: Antimicrobial activity against Finegoldia magna by Wadsworth agar dilution method in presence of beta-lactamase inhibitor Sulbactam; format: functional
[8] = tested on: Parabacteroides distasonis; assay: Antimicrobial activity against Parabacteroides distasonis by Wadsworth agar dilution method; format: functional
Parabacteroides merdae = assay: Antimicrobial activity against Parabacteroides merdae by Wadsworth agar dilution method; format: functional
Bacteroides nordii = assay: Antimicrobial activity against Bacteroides nordii by Wadsworth agar dilution method; format: functional
Desulfovibrio piger [9] = assay: Antimicrobial activity against Desulfovibrio piger by Wadsworth agar dilution method; format: functional
Fusobacterium varium [10] = assay: Antimicrobial activity against Fusobacterium varium by Wadsworth agar dilution method; format: functional
Fusobacterium sp. [11] = assay: Antimicrobial activity against Fusobacterium sp. by Wadsworth agar dilution method; format: functional
[12] = tested on: Enterocloster clostridioformis; assay: Antimicrobial activity against Clostridium clostridioforme by Wadsworth agar dilution method; format: functional
Clostridium bolteae [13] = assay: Antimicrobial activity against Clostridium bolteae by Wadsworth agar dilution method; format: functional; settings: Enterocloster bolteae
Tissierella praeacuta = assay: Antimicrobial activity against Clostridium hastiforme by Wadsworth agar dilution method; format: functional
Clostridium leptum = assay: Antimicrobial activity against Clostridium leptum by Wadsworth agar dilution method; format: functional
Clostridium scindens = assay: Antimicrobial activity against Clostridium scindens by Wadsworth agar dilution method; format: functional
[14] = tested on: Paeniclostridium sordellii; assay: Antimicrobial activity against Clostridium sordellii by Wadsworth agar dilution method; format: functional; settings: Paraclostridium sordellii
Clostridium tertium = assay: Antimicrobial activity against Clostridium tertium by Wadsworth agar dilution method; format: functional
[15] = Antimicrobial activity against Bifidobacterium infantis by Wadsworth agar dilution method; format: functional, Bifidobacterium longum subsp. infantis; settings: Bifidobacterium longum
Bifidobacterium longum = assay: Antimicrobial activity against Bifidobacterium longum by Wadsworth agar dilution method; format: functional
Holdemania filiformis = assay: Antimicrobial activity against Holdemania filiformis by Wadsworth agar dilution method; format: functional
[16] = tested on: Limosilactobacillus reuteri; assay: Antimicrobial activity against Lactobacillus reuteri by Wadsworth agar dilution method; format: functional
Cutibacterium acnes = assay: Antimicrobial activity against Propionibacterium acnes by Wadsworth agar dilution method; format: functional
Anaerococcus tetradius = assay: Antimicrobial activity against Anaerococcus tetradius by Wadsworth agar dilution method; format: functional
[17] = tested on: Peptoniphilus asaccharolyticus; assay: Antimicrobial activity against Peptoniphilus asaccharolyticus by Wadsworth agar dilution method; format: functional

CC1(C)S[C@@H]2[C@H](NC(=O)[C@H](N)c3ccccc3)C(=O)N2[C@H]1C(=O)O [AMPICILLIN]
MIC50 (Desulfovibrio piger [1]): 4 µg/mL
MIC90 (Desulfovibrio piger [1]): 32 µg/mL
MIC50 (Desulfovibrio vulgaris): 4 µg/mL
MIC90 (Desulfovibrio vulgaris): 32 µg/mL
MIC50 (Desulfovibrio sp.): 4 µg/mL
MIC90 (Desulfovibrio sp.): 32 µg/mL
MIC50 (Fusobacterium varium [2]): 1 µg/mL
MIC90 (Fusobacterium varium [2]): 4 µg/mL
MIC50 (Fusobacterium sp. [3]): 1 µg/mL
MIC90 (Fusobacterium sp. [3]): 4 µg/mL
MIC [4]: 0.25 µg/mL
MIC50 [4]: 0.25 µg/mL
MIC90 [4]: 0.5 µg/mL
MIC (Porphyromonas uenonis): 0.25 µg/mL
MIC50 (Porphyromonas uenonis): 0.25 µg/mL
MIC90 (Porphyromonas uenonis): 0.5 µg/mL
MIC50 (Prevotella corporis): 0.5 µg/mL
MIC90 (Prevotella corporis): 4 µg/mL
MIC50 [5]: 0.5 µg/mL
MIC90 [5]: 4 µg/mL
MIC (Clostridium bartlettii): 0.25 µg/mL
MIC50 (Clostridium bartlettii): 0.25 µg/mL
MIC90 (Clostridium bartlettii): 1 µg/mL
MIC (Clostridium bolteae [6]): 0.25 µg/mL
MIC50 (Clostridium bolteae [6]): 0.25 µg/mL
MIC90 (Clostridium bolteae [6]): 1 µg/mL
MIC (Clostridium butyricum): 0.25 µg/mL
MIC50 (Clostridium butyricum): 0.25 µg/mL
MIC90 (Clostridium butyricum): 1 µg/mL
MIC [7]: 0.25 µg/mL
MIC50 [7]: 0.25 µg/mL
MIC90 [7]: 1 µg/mL
MIC (Fusobacterium mortiferum): 0.25 µg/mL
MIC50 (Fusobacterium mortiferum): 0.25 µg/mL
MIC90 (Fusobacterium mortiferum): 1 µg/mL
MIC (Clostridium subterminale): 0.25 µg/mL
MIC50 (Clostridium subterminale): 0.25 µg/mL
MIC90 (Clostridium subterminale): 1 µg/mL
MIC (Atopobium minutum): 0.25 µg/mL
MIC50 (Atopobium minutum): 0.25 µg/mL
MIC90 (Atopobium minutum): 2 µg/mL
MIC (Eubacterium limosum): 0.25 µg/mL
MIC50 (Eubacterium limosum): 0.25 µg/mL
MIC90 (Eubacterium limosum): 2 µg/mL
MIC (Propionibacterium avidum): 0.25 µg/mL
MIC50 (Propionibacterium avidum): 0.25 µg/mL
MIC90 (Propionibacterium avidum): 2 µg/mL
MIC (Finegoldia magna): 0.25 µg/mL
MIC50 (Finegoldia magna): 0.25 µg/mL
MIC90 (Finegoldia magna): 2 µg/mL

NC[C@@H]1O[C@H](O[C@H]2[C@@H](O)[C@H](O[C@@H]3[C@@H](O)[C@H](N)C[C@H](N)[C@H]3O[C@H]3O[C@H](CN)[C@@H](O)[C@H](O)[C@H]3N)O[C@@H]2CO)[C@H](N)[C@@H](O)[C@@H]1O [FRAMYCETIN]
MIC50 [8]: 1020 µg/mL (≈ 1670 µM)
MIC90 [8]: > 1020 µg/mL
MIC50 (Parabacteroides merdae): 1020 µg/mL (≈ 1670 µM)
MIC90 (Parabacteroides merdae): > 1020 µg/mL
MIC50 (Bacteroides nordii): > 1020 µg/mL
MIC90 (Bacteroides nordii): > 1020 µg/mL
MIC50 (Desulfovibrio piger [9]): 256 µg/mL (≈ 416 µM)
MIC90 (Desulfovibrio piger [9]): 1020 µg/mL (≈ 1670 µM)
MIC50 (Fusobacterium varium [10]): 512 µg/mL (≈ 833 µM)
MIC90 (Fusobacterium varium [10]): > 1020 µg/mL
MIC50 (Fusobacterium sp. [11]): 512 µg/mL (≈ 833 µM)
MIC90 (Fusobacterium sp. [11]): > 1020 µg/mL
MIC50 [12]: 128 µg/mL (≈ 208 µM)
MIC90 [12]: 128 µg/mL (≈ 208 µM)
MIC50 (Clostridium bolteae [13]): 256 µg/mL (≈ 416 µM)
MIC90 (Clostridium bolteae [13]): 1020 µg/mL (≈ 1670 µM)
MIC50 (Tissierella praeacuta): 256 µg/mL (≈ 416 µM)
MIC90 (Tissierella praeacuta): 1020 µg/mL (≈ 1670 µM)
MIC50 (Clostridium leptum): 256 µg/mL (≈ 416 µM)
MIC90 (Clostridium leptum): 1020 µg/mL (≈ 1670 µM)
MIC50 (Clostridium scindens): 256 µg/mL (≈ 416 µM)
MIC90 (Clostridium scindens): 1020 µg/mL (≈ 1670 µM)
MIC50 [14]: 256 µg/mL (≈ 416 µM)
MIC90 [14]: 1020 µg/mL (≈ 1670 µM)
MIC50 (Clostridium tertium): 256 µg/mL (≈ 416 µM)
MIC90 (Clostridium tertium): 1020 µg/mL (≈ 1670 µM)
MIC50 [15]: 128 µg/mL (≈ 208 µM)
MIC90 [15]: 1020 µg/mL (≈ 1670 µM)
MIC50 (Bifidobacterium longum): 128 µg/mL (≈ 208 µM)
MIC90 (Bifidobacterium longum): 1020 µg/mL (≈ 1670 µM)
MIC50 (Holdemania filiformis): 128 µg/mL (≈ 208 µM)
MIC90 (Holdemania filiformis): 1020 µg/mL (≈ 1670 µM)
MIC50 [16]: 128 µg/mL (≈ 208 µM)
MIC90 [16]: 1020 µg/mL (≈ 1670 µM)
MIC50 (Cutibacterium acnes): 128 µg/mL (≈ 208 µM)
MIC90 (Cutibacterium acnes): 1020 µg/mL (≈ 1670 µM)
MIC50 (Anaerococcus tetradius): 128 µg/mL (≈ 208 µM)
MIC90 (Anaerococcus tetradius): 512 µg/mL (≈ 833 µM)
MIC50 [17]: 128 µg/mL (≈ 208 µM)
MIC90 [17]: 512 µg/mL (≈ 833 µM)

Reference: ChEMBL document CHEMBL1275577, “Study of the in vitro activities of rifaximin and comparator agents against 536 anaerobic intestinal bacteria from the perspective of potential utility in pathology involving bowel flora” (Antimicrob Agents Chemother, 2009)
